Data reported in US20240299492A1, “COMBINATION THERAPIES WITH SIRP ALPHA-BASED CHIMERIC PROTEINS” (Shattuck Labs, Inc., priority 2021, published 2024).

Legend:
[1] = test system: ARD1 human multiple myeloma (MM) cells; experiment: Phagocytosis of ARD1 cells by human macrophages (IncuCyte phRodo Red imaging): daratumumab and/or SIRPα-Fc-CD40L; format: cell-based; conditions: 1 μg/ml daratumumab and/or 10 μg/ml SIRPα-Fc-CD40L, 2 hours, combination p<0.0001 vs vehicle, FIG. 6
Procedure: Briefly, the ARD1 human multiple myeloma (MM) cells were labeled the IncuCyte phRodo Red cell labeling kit and co-cultured with human macrophages and treated with (1) vehicle alone control, (2) 10 μg/ml of the SIRPα-Fc-CD40L chimeric protein, (3) 1 μg/ml of daratumumab (an antibody-dependent cellular phagocytosis (ADCP)-proficient anti-CD38 antibody), or (4) 1 μg/ml of an daratumumab and 10 μg/ml of the SIRPα-Fc-CD40L chimeric protein and incubated at 37° C. in the presence of 5% CO2 for 2 hours. Cultures were imaged using the IncuCyte time-lapse microscopy system, and positive phagocytosis was determined by an increase in red fluorescent intensity which occurs when the phRodo Red labeled tumor cell is internalized into the acidic macrophage phagosome. A phagocytosis index was calculated by setting the maximum phagocytosis value to 1, and then normalizing all other replicates accordingly. The phagocytosis index was plotted for the indicated treatments.

[2] = test system: CT26 tumor cells; experiment: In vivo anti-tumor efficacy, CT26 colorectal carcinoma mouse allograft model; design: species or system BALB/C mice
Procedure: The efficacy of the SIRPα-Fc-CD40L chimeric protein was evaluated in combination with a spindle toxin. Towards that, the ability of paclitaxel and chimeric proteins to target and reduce tumor volume in vivo was determined. Briefly, BALB/C mice were inoculated with 500,000 CT26 tumor cells. When tumor volumes were approximately 50 to 60 mm^3 (day 0), the mice were randomly distributed in the following treatment groups: (1) vehicle only control, (2) 300 μg of the SIRPα-Fc-CD40L chimeric protein alone, (3) 24 mg/kg paclitaxel alone, and (4) a combination 300 μg of the SIRPα-Fc-CD40L chimeric protein and 24 mg/kg paclitaxel. The mice were dosed on days 0, 3 and 6 via intraperitoneal injections. Tumors were measured with electronic calipers on day 14 and plotted using the GraphPad Prism software.
The efficacy of the SIRPα-Fc-CD40L chimeric protein was evaluated in combination with an antimetabolite or. Towards that, the ability of 5-fluorouracil and chimeric proteins to target and reduce tumor volume in vivo was determined. Briefly, BALB/C mice were inoculated with 500,000 CT26 tumor cells. When tumor volumes were approximately 50 to 60 mm^3 (day 0), the mice were randomly distributed in the following treatment groups: (1) vehicle only control, (2) 300 μg of the SIRPα-Fc-CD40L chimeric protein alone, (3) 20 mg/kg 5-fluorouracil alone, and (4) a combination 300 μg of the SIRPα-Fc-CD40L chimeric protein and 20 mg/kg 5-fluorouracil. The mice were dosed via intraperitoneal injections as follows: the SIRPα-Fc-CD40L chimeric protein was administered on days 0, 3 and 6; and 5-fluorouracil was administered on days 0, 2 and 4. Tumors were measured with electronic calipers on day 11 and plotted using the GraphPad Prism software.
The efficacy of the SIRPα-Fc-CD40L chimeric protein was evaluated in combination with a topoisomerase I inhibitor. Towards that, the ability of irinotecan and chimeric proteins to target and reduce tumor volume in vivo was determined. Briefly, BALB/C mice were inoculated with 500,000 CT26 tumor cells. When tumor volumes were approximately 50 to 60 mm^3 (day 0), the mice were randomly distributed in the following treatment groups: (1) vehicle only control, (2) 300 μg of the SIRPα-Fc-CD40L chimeric protein alone, (3) 25 mg/kg irinotecan alone, and (4) a combination 300 μg of the SIRPα-Fc-CD40L chimeric protein and 25 mg/kg irinotecan. The mice were dosed on days 0 and 2 via intraperitoneal injections. Tumors were measured with electronic calipers on day 4 and plotted using the GraphPad Prism software.
The efficacy of the SIRPα-Fc-CD40L chimeric protein was evaluated in combination with an anthracycline. Towards that, the ability of doxorubicin and chimeric proteins to target and reduce tumor volume in vivo was determined. Briefly, BALB/C mice were inoculated with 500,000 CT26 tumor cells. When tumor volumes were approximately 50 to 60 mm^3 (day 0), the mice were randomly distributed in the following treatment groups: (1) vehicle only control, (2) 300 μg of the SIRPα-Fc-CD40L chimeric protein alone, (3) 8 mg/kg doxorubicin alone, and (4) a combination 300 μg of the SIRPα-Fc-CD40L chimeric protein and 8 mg/kg doxorubicin. The mice were dosed with the SIRPα-Fc-CD40L chimeric protein on days 0, 3 and 6 via intraperitoneal injections, and with doxorubicin thrice through the tail vein. Tumors were measured with electronic calipers on day 7 and plotted using the GraphPad Prism software.
The efficacy of the SIRPα-Fc-CD40L chimeric protein was evaluated in combination with a platinum compound. Towards that, the ability of cisplatin and chimeric proteins to target and reduce tumor volume in vivo was determined. Briefly, BALB/C mice were inoculated with 500,000 CT26 tumor cells. […]

[3] = test system: ARD1 human multiple myeloma cells; experiment: Phagocytosis of ARD1 cells by human macrophages (flow cytometry): elotuzumab and/or SIRPα-Fc-CD40L; format: cell-based; conditions: 1 μg/ml elotuzumab and/or SIRPα-Fc-CD40L (10 μg/ml alone; 10 pg/ml in the combination), 4 hours; combination p<0.05 vs vehicle; FIG. 8
Procedure: Briefly, the ARD1 human multiple myeloma cells were labeled with a green fluorescent tracker and co-cultured with human macrophages and treated with (1) vehicle alone control, (2) 10 μg/ml of the SIRPα-Fc-CD40L chimeric protein, (3) 1 μg/ml of elotuzumab (an antibody-dependent cellular phagocytosis (ADCP)-proficient anti-SLAMF7 antibody), or (4) 1 μg/ml of elotuzumab and 10 pg/ml of the SIRPα-Fc-CD40L chimeric protein and incubated at 37° C. in the presence of 5% CO2 for 4 hours. After this incubation, the cells were harvested and treated with an anti-CD11b antibody (a macrophage marker) and were analyzed using flow cytometry. Positive phagocytosis was determined by the overlap in signals of tumor (the green fluorescent tracker) and macrophage (anti-CD11b antibody staining). A phagocytosis index was calculated by setting the maximum phagocytosis value to 1, and then normalizing all other replicates accordingly. The phagocytosis index was plotted for the indicated treatments.

[4] = test system: ARD1 human multiple myeloma (MM) cells; experiment: Phagocytosis of ARD1 cells by human macrophages (flow cytometry): bortezomib and/or SIRPα-Fc-CD40L; format: cell-based; conditions: 1 pM bortezomib overnight and/or SIRPα-Fc-CD40L for 4 hours; combination p<0.0001 vs control; FIG. 3B
Procedure: (§1) In another experiment, the ARD1 human multiple myeloma (MM) cells were labeled with a green fluorescent tracker and treated with vehicle alone control or 1 pM bortezomib overnight. The following day, the tumor cells were washed in PBS and then co-cultured with human macrophages with or without the SIRPα-Fc-CD40L chimeric protein for 4 hours at 37° C. in the presence of 5% CO2. After this incubation, the cells were harvested and treated with an anti-CD11b antibody (a macrophage marker) and were analyzed using flow cytometry. Positive phagocytosis was determined by the overlap in signals of tumor (the green fluorescent tracker) and macrophage (anti-CD11b antibody staining). A phagocytosis index was calculated by setting the maximum phagocytosis value to 1, and then normalizing all other replicates accordingly. The phagocytosis index was plotted for the indicated treatments.

[5] = test system: MM1R human multiple myeloma (MM) cells; experiment: Phagocytosis of MM1R cells by human macrophages (flow cytometry): bortezomib and/or SIRPα-Fc-CD40L; format: cell-based; conditions: 1 pM bortezomib overnight and/or SIRPα-Fc-CD40L for 4 hours; combination p<0.0001 vs control; FIG. 3A
Procedure: as §1, with “Briefly,” for “In another experiment,”, “MM1R” for “ARD1”

[6] = test system: KMS12B multiple myeloma cells; experiment: Phagocytosis of KMS12B cells by M1 macrophages with activated T cells (flow cytometry): pomalidomide with or without SIRPα-Fc-CD40L; format: cell-based, human; conditions: 10 μM pomalidomide, CD3/CD28 activated T cells, M1 polarized macrophages, 4 hours; FIG. 7
Procedure: Briefly, CD14+ monocytes were isolated from human donor PBMCs and cultured with m-CSF (100 ng/ml) for 6 days. On day 6, IFNγ (100 ng/ml) and LPS (10 ng/ml) were added to the cells for an additional 24 hours, generating M1 polarized macrophages. On day 5 of the macrophage differentiation, another vial of PBMCs from the same human donor was thawed, and CD3 T cells were isolated using a magnetic bead isolation kit. These T cells were activated for 2 days with CD3/CD28 T cell magnetic activation beads. On day 7 when both the macrophages and T cells were activated and ready, they were combined with KMS12B multiple myeloma cells, which were labeled with a green fluorescent tracker, with 10 μM pomalidomide and with or without 50 μg/ml of the SIPRα-Fc-CD40L chimeric protein. KMS12B cells incubated with the macrophages and 10 μM pomalidomide, without T cells, were used as a negative control. This coculture was incubated for 4 hours at 37° C., 5% CO2. After this incubation, the cells were harvested and treated with an anti-CD11b antibody (a macrophage marker) and were analyzed using flow cytometry. Positive phagocytosis was determined by the overlap in signals of tumor (the green fluorescent tracker) and macrophage (anti-CD11b antibody staining). A phagocytosis index was calculated by setting the maximum phagocytosis value to 1, and then normalizing all other replicates accordingly. […]

Q: “daratumumab: an antibody-dependent cellular phagocytosis (ADCP)-proficient anti-CD38 antibody” was tested. Which “level of phagocytosis (phagocytosis index) compared to the vehicle only-treated ARD1 cells” value [1] did it give?
A: increased level of phagocytosis

Q: For `O=c1[nH]cc(F)c(=O)[nH]1` [5-fluorouracil], which tumor size ([2]; day 11, 300 μg SIRPα-Fc-CD40L (days 0, 3, 6) and/or 20 mg/kg 5-fluorouracil (days 0, 2, 4), intraperitoneal, combination vs vehicle p<0.01, vs 5-fluorouracil alone p<0.05, FIG. 10B) is on record?
A: reduction in tumor size

Q: How did the tumor size ([2]; day 14, 300 μg SIRPα-Fc-CD40L and/or 24 mg/kg paclitaxel, intraperitoneal, days 0, 3 and 6, FIG. 10A) turn out when `CC(=O)O[C@H]1C(=O)[C@@]2(C)[C@H]([C@H](OC(=O)c3ccccc3)[C@]3(O)C[C@H](OC(=O)[C@H](O)[C@@H](NC(=O)c4ccccc4)c4ccccc4)C(C)=C1C3(C)C)[C@]1(OC(C)=O)CO[C@@H]1C[C@@H]2O` [paclitaxel] was run?
A: reduction in tumor size

Q: “elotuzumab: an antibody-dependent cellular phagocytosis (ADCP)-proficient anti-SLAMF7 antibody” was tested. Which “level of phagocytosis (phagocytosis index) compared to the vehicle only-treated ARD1 cells” value [3] did it give?
A: increased level of phagocytosis

Q: For `N.N.[Cl][Pt][Cl]` [cisplatin], which tumor size ([2]; day 4, 300 μg SIRPα-Fc-CD40L (days 0 and 3) and/or 200 μg cisplatin (day 0), intraperitoneal, FIG. 10E) is on record?
A: reduction in tumor size

Q: Which tumor size ([2]; day 4, 300 μg SIRPα-Fc-CD40L (days 0 and 3) and/or 10 mg/kg oxaliplatin (day 0), intraperitoneal, FIG. 10F) does the source give for `O=C1[O][Pt]2([NH][C@@H]3CCCC[C@H]3[NH]2)[O]C1=O` [oxaliplatin] here?
A: reduction in tumor size

Q: For `CC(C)C[C@H](NC(=O)[C@H](Cc1ccccc1)NC(=O)c1cnccn1)B(O)O` [bortezomib], which “level of phagocytosis (phagocytosis index) compared to the control ARD1 cells” value [4] is on record?
A: increased level of phagocytosis

Q: What about the “level of phagocytosis (phagocytosis index) compared to the control MM1R cells” value [5] of the same compound?
A: increased level of phagocytosis

Q: How did the tumor size ([2]; day 4, 300 μg SIRPα-Fc-CD40L and/or 25 mg/kg irinotecan, intraperitoneal, days 0 and 2, FIG. 10C) turn out when `CCc1c2c(nc3ccc(OC(=O)N4CCC(N5CCCCC5)CC4)cc13)-c1cc3c(c(=O)n1C2)COC(=O)[C@]3(O)CC` [irinotecan] was run?
A: reduction in tumor size

Q: For `COc1cccc2c1C(=O)c1c(O)c3c(c(O)c1C2=O)C[C@@](O)(C(=O)CO)C[C@@H]3O[C@H]1C[C@H](N)[C@H](O)[C@H](C)O1` [doxorubicin], which tumor size ([2]; day 7, 300 μg SIRPα-Fc-CD40L (intraperitoneal, days 0, 3, 6) and/or 8 mg/kg doxorubicin (thrice, tail vein), FIG. 10D) is on record?
A: reduction in tumor size

Q: With `Nc1cccc2c1C(=O)N(C1CCC(=O)NC1=O)C2=O` (centres unmarked) [pomalidomide] as the compound, how does the “phagocytosis of KMS12B cells incubated with T cells, macrophages and pomalidomide compared to incubation without T cells (negative control)” value [6] read?
A: increased phagocytosis
